Where two headings read alike, the source gives them in different places.
Key:
[1] = cited from earlier work; for allergic responses / skin irritation / sensitization: human, in vivo
[2] = human, in vivo
Experimental: Ten subjects, 4 females and 6 males, ranging in age from 18 to 27 years participated with informed consent.
The products were applied to alternate inner wrist surfaces, in areas of 2.5×1.0 cm, rubbed into the skin for aproximately 5-10 seconds, using a gloved finger as an applicator and applying equal pressure in all applications. […] Mixing, applications and assays were performed in subdued light in order to decrease photodecomposition. The application sites were loosely covered with protective aluminum foil. After 30 minutes of exposure, the surface products were removed by rinsing with alcohol followed by air-drying. A strip of 3M Tape was then applied to the application site in a slightly larger rectangle than the site and removed. This stripping process was repeated for a total of 15 times and was designed to removed the entire stratum corneum. The combined strips were eluted with methanol and the eluates were assayed for RP by HPLC, using a Lichrosorb Si 60/5 micron column, after separation and saponification according to a modified USP XXI procedure.

[3] = present practices of use and concentration; cited from earlier work
[4] = In vitro water/solvent partitioning (dispersion, centrifugation, HPLC of supernatant); assay type: physicochemical
Experimental: The method s for determining in vitro water/solvent partitioning was as follows:
Individual dispersions of the above were prepared in the following solvents:
(1) Distilled water at 23° C.
(2) Distilled water at 70° C.
The dispersions were made under nitrogen and protected from light, using high shear agitation to yield particles of less than 0.5 u in diameter. The concentrations in each case were calculated to yield 4,000 i.u. per ml. The dispersions were centrifuged until clear supernatant liquids were obtained. Aliquouts of 50 uL of the clear supernatants were injected into the HPLC columns and the resulting peaks were evaluated, using a methanol solution of retinyl palmitate as the standard.

[5] = topical; cited from earlier work
fetuses [6] = settings: rabbit; topical administration to the mother; cited from earlier work
fetuses [7] = settings: rat; topical administration to the mother; cited from earlier work
[8] = n-Hexane at 250° C. (so in the source), dispersion calculated to 4,000 i.u. per ml
[9] = n-Hexane, dispersion calculated to 4,000 i.u. per ml

CC1=C(/C=C/C(C)=C/C=C/C(C)=C\C(=O)O)C(C)(C)CCC1 [Accutane®, 13-cis-Retinoic acid]
birth defects ([1]; children of women treated during pregnancy): extensive birth defects in children of women treated with the drug during pregnancy
allergic responses / skin irritation / sensitization [1]: Allergic responses have also been reported

CCCCCCCCCCCCCCCC(=O)OC/C=C(C)/C=C/C=C(C)/C=C/C1=C(C)CCCC1(C)C [RP, retinyl palmitate]
% Retinyl Palmitate Absorbed, average +/- Std. Deviation [2]: 0.84 +/- 0.21%
safety as cosmetic ingredient [3]: safe as cosmetic ingredients
solubility in n-hexane (in words) [4]: good solubility
solubility in water (in words) [4]: no solubility in water
Absorption, both HPLC peaks (or absence of peak) ([4]; Water at 23° C., dispersion calculated to 4,000 i.u. per ml): No peak
Absorption, both HPLC peaks (or absence of peak) ([4]; Water at 70° C., dispersion calculated to 4,000 i.u. per ml): No Peak
Absorption, both HPLC peaks (or absence of peak) [4, 8]: 0.10
HPLC Peak #2 [4, 8]: 0.070
Absorption equivalent [4, 9]: ~4,000 i.u.
HPLC Peak #1 [4, 9]: 0.031
partitioning / migration into water and hexane (in words) ([4]; water and hexane): no migration into water with some fractionation into hexane

CC1=C(/C=C/C(C)=C/C=C/C(C)=C/C(=O)O)C(C)(C)CCC1 [Tretinoin, All-trans-retinoic acid]
treatment of photoaged skin [5]: effective for the treatment of photoaged skin
fetal abnormalities (fetuses [6]): abnormalities in rat and rabbit fetuses
fetal abnormalities (fetuses [7]): abnormalities in rat and rabbit fetuses
allergic responses / skin irritation / sensitization [1]: severe skin irritation, sensitization and allergic responses

CC(C=CC1=C(C)CCCC1(C)C)=CC=CC(C)=CCO [retinol, 3,7-dimethyl-9-(2,6,6-trimethyl-1-cyclohexen-1-yl)-2,4,6,8-nonatetraen-1-ol]
safety as cosmetic ingredient [3]: safe as cosmetic ingredients
